Results reported in patent US4839366A, “Methylthioquinolyl guanidine derivative, process of preparation thereof and pharmaceutical compositions therefrom” (Chiesi Farmaceutici S.p.A., priority 1983, dated 1989).
Like-named read-outs stand apart in the source and are kept apart here.

Experiments:
[1] = system: phenylquinone writhings in the mouse; assay: Phenylquinone writhings in the mouse; assay type: in vivo; conditions: for ED50: Mus musculus, from dose-response curves; for ED50 / % inhibition vs controls (writhings) / No. of writhings (X ± SE): oral
Description: The method used was that of SIEGMUND et al. (Siegmund et al. J. Pharmacol. Exp. Ther. 119, 184, 1957) modified (Arzneim. Forsch. 31(1), 87, 1981).
Male mice, 19-22 g, fasted for 18 h with free access to water, received the test drugs suspended in 0.2% Tween 80 aqueous solution (10 ml/Kg) by esophageal tube, the controls receiving the vehicle only.
One hour later all the animals were given an intraperitoneal injection of 0.02% phenylquinone solution in 5% aqueous ethanol (10 ml/Kg).
A `blind` observer recorded the number of writhings in each animal from the 5th to the 15th min after phenylquinone administration.

[2] = Determination of the therapeutical index (UD50/ED40); assay type: in vivo, rat; conditions: gastric ulcers UD50 / paw edema ED40
Description: From the UD50 /ED40 ratio (antiinflammatory activity values obtained from the regression lines for dose--AUC) the therapeutic index were calculated (Table 5).

[3] = system: Carrageenin-induced paw edema in the rat; assay: Carrageenin paw edema in the rat; assay type: in vivo; conditions: for % inhibition vs controls, AUC (paw edema): AUC of paw volume against time
Description: Paw edema was induced in male rats fasted for 18 h but with free access to water, by the method of WINTER et al. (Winter C. A. et al. Proc. Soc. Exp. Biol. Med. 111, 544, 1962) injecting 0.1 ml carrageenin 1% in physiological saline into the right hind paw aponeurosis.
60 min before induction of edema the drugs suspended in 0.2% Tween
80 aqueous solution were dosed by gastric tube (20 ml/Kg); the controls received the vehicle only.
The volume of the right paw was measured by plethysmography immediately before (time 0) and 1, 2, 3, 4, 6 h after subplantar injection of the irritant.
The area under the curve expressing the paw volume plotted against time (AUC) was calculated for each animal.
The results, expressed as percent inhibition of edema development in treated animals as compared to the controls and as ED40 values obtained from the regression lines for dose-AUC, are reported in Table 2.

[4] = Acute effect on gastrointestinal tract: gastric ulcers in the rat; assay type: in vivo; conditions: rat, in vivo, po
Description: (§1) Male rats weithing 250-280 g were starved for 18 h but allowed free access to water and the drugs were delivered by esophageal tube (suspension in 0.2% Tween 80 aqueous solution, 10 ml/Kg).
(§2) Control animals received the vehicle only (10 ml/Kg).
(§3) Five hours after drug administration the rats were killed.
(§4) The stomach was slit along the lesser curvature, washed under running water and examined for haemorrhagic lesions in the glandular part of the mucosa: these lesions will be conventionally defined as `ulcers`.
(§5) The following were recorded:
(§6) (a) the sum of the maximum diameters of all the ulcerated spots;
(§7) (b) the number of ulcerated spots.
(§8) The UD50 was calculated by the method of LITCHFIELD and WILCOXON (Litchfield J. T., Wilcoxon F. J. Pharm. Exp. Ther. 96, 99-113, 1949), all animals with gastric lesion whose sum (a) was 2 mm or more being rated as `ulcerated`.

[5] = system: gastric ulcers in the rat; assay: as above; assay type: in vivo; conditions: for Potency ratio relative to timegadine: gastric ulcers, UD50; for Gastric ulcers (X ± SE), No. / Gastric ulcers (X ± SE), mm / Rats with gastric ulcers: oral; for Gastric ulcers (X ± SE), No.: number of ulcerated spots; for Gastric ulcers (X ± SE), mm: sum of maximum diameters; for Rats with gastric ulcers: ulceration 2 mm and over
Description: as §1, §2, §3, §4, §5, §6, §7, §8

[6] = Acute toxicity, single oral administration; conditions: mouse, in vivo, read-out: LD50 approx
Description: The toxicity for single administration has been determined by the oral route in IVa:NMRI (SPF) fasted male mice, with water ad libitum, 18 hours before the experiment.

[7] = Rattus norvegicus, oral, from regression lines for dose-AUC (Table 2), read-out: ED40
[8] = restated in Table 5, from regression lines for dose-AUC

SMILES: CSc1cc(NC(=Nc2nccs2)NC2CCCCC2)c2ccccc2n1 [Compound I, N-cyclohexyl-N"-4-(2-methylthioquinolyl)-N'-2-thiazolyl-guanidine]
- ED50 [1]: 18.7 µmol/kg
- analgesic activity compared with timegadine ([1]; in words): higher than those of timegadine
- % inhibition vs controls (writhings) ([1]; 18.3 μmol/Kg): 47.0%
- No. of writhings (X ± SE) ([1]; 18.3 μmol/Kg): 19.5 ± 4.8
- % inhibition vs controls (writhings) ([1]; 55 μmol/Kg): 79.3%
- No. of writhings (X ± SE) ([1]; 55 μmol/Kg): 7.6 ± 2.4
- % inhibition vs controls (writhings) ([1]; 164 μmol/Kg): 96.5%
- No. of writhings (X ± SE) ([1]; 164 μmol/Kg): 1.3 ± 0.5
- Potency ratio relative to timegadine ([1]; phenylquinone writhings, ED50): 3.1
- T.I. (UD50/ED40) [2]: 7.99
- ED40 [3, 7]: 111 µmol/kg
- Potency ratio relative to timegadine ([3]; carrageenin paw edema, ED40 (Table 2)): 1.32
- antiinflammatory activity compared with timegadine ([3]; in words): higher than those of timegadine
- % inhibition vs controls (paw edema), 1 h ([3]; oral, 30 μmol/kg): 4%
- % inhibition vs controls (paw edema), 2 h ([3]; oral, 30 μmol/kg): 47%
- % inhibition vs controls (paw edema), 3 h ([3]; oral, 30 μmol/kg): 40%
- % inhibition vs controls (paw edema), 4 h ([3]; oral, 30 μmol/kg): 28%
- % inhibition vs controls (paw edema), 6 h ([3]; oral, 30 μmol/kg): 8%
- % inhibition vs controls, AUC (paw edema) ([3]; oral, 30 μmol/kg): 27.9%
- % inhibition vs controls (paw edema), 1 h ([3]; oral, 91 μmol/kg): 13%
- % inhibition vs controls (paw edema), 2 h ([3]; oral, 91 μmol/kg): 51%
- % inhibition vs controls (paw edema), 3 h ([3]; oral, 91 μmol/kg): 48%
- % inhibition vs controls (paw edema), 4 h ([3]; oral, 91 μmol/kg): 42%
- % inhibition vs controls (paw edema), 6 h ([3]; oral, 91 μmol/kg): 17%
- % inhibition vs controls, AUC (paw edema) ([3]; oral, 91 μmol/kg): 37.3%
- % inhibition vs controls (paw edema), 1 h ([3]; oral, 274 μmol/kg): 17%
- % inhibition vs controls (paw edema), 2 h ([3]; oral, 274 μmol/kg): 53%
- % inhibition vs controls (paw edema), 3 h ([3]; oral, 274 μmol/kg): 58%
- % inhibition vs controls (paw edema), 4 h ([3]; oral, 274 μmol/kg): 56%
- % inhibition vs controls (paw edema), 6 h ([3]; oral, 274 μmol/kg): 33%
- % inhibition vs controls, AUC (paw edema) ([3]; oral, 274 μmol/kg): 49.0%
- ED40 [3, 8]: 111 µmol/kg
- TD50 at 5 h [4]: 887 µmol/kg
- Potency ratio relative to timegadine [5]: 0.47
- gastric irritant potential compared with timegadine ([5]; in words): lesser gastric irritant potential
- Gastric ulcers (X ± SE), No. ([5]; 115 μmol/Kg): 0.5 ± 0.3
- Gastric ulcers (X ± SE), mm ([5]; 115 μmol/Kg): 0.5 ± 0.3 mm
- Rats with gastric ulcers ([5]; 115 μmol/Kg): 1/10
- Gastric ulcers (X ± SE), No. ([5]; 230 μmol/Kg): 0.6 ± 0.3
- Gastric ulcers (X ± SE), mm ([5]; 230 μmol/Kg): 1.2 ± 0.8 mm
- Rats with gastric ulcers ([5]; 230 μmol/Kg): 1/10
- Gastric ulcers (X ± SE), No. ([5]; 461 μmol/Kg): 2.1 ± 1.0
- Gastric ulcers (X ± SE), mm ([5]; 461 μmol/Kg): 3.8 ± 1.8 mm
- Rats with gastric ulcers ([5]; 461 μmol/Kg): 4/10
- Gastric ulcers (X ± SE), No. ([5]; 922 μmol/Kg): 4.8 ± 1.5
- Gastric ulcers (X ± SE), mm ([5]; 922 μmol/Kg): 8.7 ± 3.5 mm
- Rats with gastric ulcers ([5]; 922 μmol/Kg): 5/10
- LD50 ([6]; po): > 1000 mg/kg

SMILES: Cc1cc(/N=C(\Nc2nccs2)NC2CCCCC2)c2ccccc2n1 [timegadine, N-cyclohexyl-N"-4-(2-methylquinolyl)-N'-2-thiazolyl guanidine, reference compound]
- ED50 [1]: 58.9 µmol/kg
- % inhibition vs controls (writhings) ([1]; 18.3 μmol/Kg): 26.1%
- No. of writhings (X ± SE) ([1]; 18.3 μmol/Kg): 27.2 ± 4.1
- % inhibition vs controls (writhings) ([1]; 55 μmol/Kg): 36.4%
- No. of writhings (X ± SE) ([1]; 55 μmol/Kg): 23.4 ± 4.6
- % inhibition vs controls (writhings) ([1]; 164 μmol/Kg): 82.1%
- No. of writhings (X ± SE) ([1]; 164 μmol/Kg): 6.6 ± 2.9
- T.I. (UD50/ED40) [2]: 2.83
- ED40 [3, 7]: 147 µmol/kg
- % inhibition vs controls (paw edema), 1 h ([3]; oral, 30 μmol/kg): 17%
- % inhibition vs controls (paw edema), 2 h ([3]; oral, 30 μmol/kg): 18%
- % inhibition vs controls (paw edema), 3 h ([3]; oral, 30 μmol/kg): 11%
- % inhibition vs controls (paw edema), 4 h ([3]; oral, 30 μmol/kg): 15%
- % inhibition vs controls (paw edema), 6 h ([3]; oral, 30 μmol/kg): 4%
- % inhibition vs controls, AUC (paw edema) ([3]; oral, 30 μmol/kg): 12.3%
- % inhibition vs controls (paw edema), 1 h ([3]; oral, 91 μmol/kg): 38%
- % inhibition vs controls (paw edema), 2 h ([3]; oral, 91 μmol/kg): 51%
- % inhibition vs controls (paw edema), 3 h ([3]; oral, 91 μmol/kg): 30%
- % inhibition vs controls (paw edema), 4 h ([3]; oral, 91 μmol/kg): 27%
- % inhibition vs controls (paw edema), 6 h ([3]; oral, 91 μmol/kg): 9%
- % inhibition vs controls, AUC (paw edema) ([3]; oral, 91 μmol/kg): 28.4%
- % inhibition vs controls (paw edema), 1 h ([3]; oral, 274 μmol/kg): 33%
- % inhibition vs controls (paw edema), 2 h ([3]; oral, 274 μmol/kg): 55%
- % inhibition vs controls (paw edema), 3 h ([3]; oral, 274 μmol/kg): 58%
- % inhibition vs controls (paw edema), 4 h ([3]; oral, 274 μmol/kg): 57%
- % inhibition vs controls (paw edema), 6 h ([3]; oral, 274 μmol/kg): 44%
- % inhibition vs controls, AUC (paw edema) ([3]; oral, 274 μmol/kg): 52.9%
- ED40 [3, 8]: 147 µmol/kg
- TD50 at 5 h [4]: 413 µmol/kg
- Potency ratio relative to timegadine [5]: 1
- Gastric ulcers (X ± SE), No. ([5]; 115 μmol/Kg): 0.3 ± 0.2
- Gastric ulcers (X ± SE), mm ([5]; 115 μmol/Kg): 0.4 ± 0.2 mm
- Rats with gastric ulcers ([5]; 115 μmol/Kg): 0/10
- Gastric ulcers (X ± SE), No. ([5]; 230 μmol/Kg): 0.8 ± 0.3
- Gastric ulcers (X ± SE), mm ([5]; 230 μmol/Kg): 1.3 ± 0.7 mm
- Rats with gastric ulcers ([5]; 230 μmol/Kg): 2/10
- Gastric ulcers (X ± SE), No. ([5]; 461 μmol/Kg): 4.4 ± 1.5
- Gastric ulcers (X ± SE), mm ([5]; 461 μmol/Kg): 6.7 ± 2.3 mm
- Rats with gastric ulcers ([5]; 461 μmol/Kg): 6/10
- Gastric ulcers (X ± SE), No. ([5]; 922 μmol/Kg): 9.4 ± 1.8
- Gastric ulcers (X ± SE), mm ([5]; 922 μmol/Kg): 18.5 ± 4.4 mm
- Rats with gastric ulcers ([5]; 922 μmol/Kg): 9/10
- LD50 ([6]; oral, single administration, male mice, interpolation on Probits paper): > 1000 mg/kg
